From US20230135093A1, “TRIAZOLYL DERIVATIVES AS GABA A ALPHA5 PAM” (Hoffmann-La Roche Inc., priority 2020, published 2023)

Experiments:
[1] = molecular target: T1, h-GABA-A α5β3γ2 (Homo sapiens, UniProt P18507+P31644); assay: Two-electrode voltage clamp electrophysiology in Xenopus oocytes expressing GABAA receptors (modulation of GABA EC20 current); type: cell-based; conditions: for Efficacy (GABA) % / Fold increase h-GABA-A α5β3γ2 oocyte: Table 1; for Efficacy (GABA) %: % modulation of GABA EC20 = 100*(Fold increase-1); for Fold increase h-GABA-A α5β3γ2 oocyte: Xenopus oocytes, GABA EC20, test compound at approximatively 30 fold its Ki; for Fold increase: positive controls
T1 construct: expressed in transfected cells; host or cells: Xenopus laevis oocytes, micro-injected with subunit RNA
Protocol: Xenopus laevis oocytes at maturation stages V-VI were used for the expression of cloned mRNA encoding GABAA receptor subunits. Oocytes ready for RNA micro-injection were bought from Ecocyte, Castrop-Rauxel, Germany and stored in modified Barth's medium (composition in mM: NaCl 88, KCl 1, NaHCO3 2.4, HEPES 10, MgSO4 0.82, CaNO3 0.33, CaCl2 0.33, pH=7.5) at 20° C. until the experiment.
Oocytes were plated in 96-well plates to be used in an automated instrument (Robo-ocyte, MultiChannelSystems, Reutlingen, Germany) for microinjection and electrophysiological recordings. Approximately 50 nl of an aqueous solution containing the RNA transcripts for the subunits of the desired GABAA receptor was injected into each oocyte. RNA concentrations ranged between 0.3 and 16 ng/μl/subunit and were adjusted in pilot experiments to obtain GABA responses of a suitable size and a maximal effect of the reference modulator, Beta-CCM (3-CCM), a betacarboline negative allosteric modulator (NAM) at the GABAA receptor benzodiazepine (BZD) binding site or Midazolam, a benzodiazepine positive allosteric modulator (PAM) at the GABAA receptor benzodiazepine (BZD) binding site. The concentration of the γ2 subunit encoding RNA usually was 5- to 10-fold higher than the RNAs encoding the other subunits. Oocytes were kept in modified Barth's medium (composition in mM: NaCl 88, KCl 1, NaHCO3 4, HEPES 10, MgSO4 0.82, CaNO3 0.33, CaCl2 0.33, pH=7.5) at 20° C. until the experiment.
Electrophysiological experiments were performed on days 3 to 5 after the micro-injection of mRNA. During the experiment the oocytes were constantly superfused by a solution containing (in mM) NaCl 90, KCl 1, HEPES 5, MgCl2 1, CaCl2 1 (pH 7.4). Oocytes were impaled by two glass microelectrodes (resistance: 0.4 MQ) which were filled with a solution containing KCl 1M+K-acetate 1.5 M and voltage-clamped to −80 mV. The recordings were performed at room temperature using the Roboocyte two-electrode voltage clamp system (Multichannelsystem). After an initial equilibration period of 1.5 min GABA was added for 1.5 min at a concentration evoking approximately 20% of a maximal current response (EC20). After another rest interval of 2.5 min GABA was again added evoking a response of similar amplitude and shape. 0.5 min after the onset of this second GABA application the test compound, at a concentration corresponding to approximatively 30 fold its Ki, was added while GABA was still present. Current traces were recorded at a digitization rate of 10 Hz during and shortly before and after the GABA application.
Each compound and concentration was tested on at least 3 oocytes. Different oocytes were used for different compound concentrations. β-CCM, a negative allosteric modulator, or Midazolam, a positive allosteric modulators, were tested on a few (3-6) oocytes on each 96-well plate for a positive control at a maximally effective. β-CCM inhibited the GABA-evoked current by approximatively 50% (Fold increase 0.5), while Midazolam potentiated the GABA-induced current by approximatively 150% (Fold increase 2.5).
For the analysis, the digitized current traces of the first and second GABA response were superimposed and, if necessary, rescaled to equal maximal amplitudes. The ratio between the two responses during the time interval of test compound application was calculated point by point. The extremum of the resulting “ratio trace” was taken as the efficacy (“Fold increase”) of the compound expressed as “% modulation of GABA EC20” (100*(Fold increase-1)).

[2] = molecular target: T1, h-GABA-A α5β3γ2; assay: [3H]flumazenil competition binding assay on membranes of HEK293 cells expressing GABAA receptors; conditions: Table 1; displacement of [3H]-Flumazenil (0.5 nM), HEK293 cells expressing human receptors, means of two determinations
Protocol: The affinity of compounds at GABAA receptor subtypes was measured by competition for [3H]flumazenil (85 Ci/mmol; Roche) binding to HEK293 cells expressing rat (stably transfected) or human (transiently transfected) receptors of composition α1β3γ2, α2β3γ2, α3β3γ2 and α5β3γ2.
Cell pellets were suspended in Krebs-tris buffer (4.8 mM KCl, 1.2 mM CaCl2, 1.2 mM MgCl2, 120 mM NaCl, 15 mM Tris; pH 7.5; binding assay buffer), homogenized by polytron for ca. 20 sec on ice and centrifuged for 60 min at 4° C. (50000 g; Sorvall, rotor: SM24=20000 rpm). The cell pellets were resuspended in Krebs-tris buffer and homogenized by polytron for ca. 15 sec on ice. Protein was measured (Bradford method, Bio-Rad) and aliquots of 1 mL were prepared and stored at −80° C.
Radioligand binding assays were carried out in a volume of […] (96-well plates) which contained […] of cell membranes, [^3H]-Flumazenil at a concentration of 1 nM for α1, α2, α3 subunits and 0.5 nM for α5 subunits and the test compound in the range of […]. Nonspecific binding was defined by 10^−5 M diazepam and typically represented less than 5% of the total binding. Assays were incubated to equilibrium for 1 hour at 4° C. and harvested onto GF/C uni-filters (Packard) by filtration using a Packard harvester and washing with ice-cold wash buffer (50 mM Tris; pH 7.5). After drying, filter-retained radioactivity was detected by liquid scintillation counting. Ki values were calculated using Excel-Fit (Microsoft) and are the means of two determinations.
In a preferred embodiment the compounds of the invention are binding selective for the α5 subunit relative to the α1, α2 and α3 subunit. Representative test results, obtained by the above described assay measuring binding affinity to HEK293 cells expressing human (h) receptors, are shown in the Table below.

[3] = positive control, maximally effective concentration, 3-6 oocytes per 96-well plate
[4] = maximally effective concentration

Row | SMILES | Efficacy (GABA) % [1] [%] | Fold increase h-GABA-A α5β3γ2 oocyte [1] | Ki [2] [nM] | potentiated the GABA-induced current [1, 3] [%] | Fold increase [1, 4] | inhibited the GABA-evoked current [1, 3] [%]
1 | Cc1ccc(-c2nnn(C)c2Cn2ncc(N3C[C@H](C)O[C@@H](C)C3)cc2=O)cn1 (racemic) [Example 12, 2-[[3-methyl-5-(6-methyl-3-pyridyl)triazol-4-yl]methyl]-5-[rac-(2S,6S)-2,6-dimethylmorpholin-4-yl]pyridazin-3-one] | 191 | 2.91 | 2.6 | – | – | –
2 | Cc1nnn(-c2ccc(Cl)cc2F)c1Cn1ncc(N2C[C@H](C)O[C@@H](C)C2)cc1=O (racemic) [Example 37, 2-[[3-(4-chloro-2-fluoro-phenyl)-5-methyl-triazol-4-yl]methyl]-5-[rac-(2S,6S)-2,6-dimethylmorpholin-4-yl]pyridazin-3-one] | 135 | 2.35 | 3.6 | – | – | –
3 | Cc1ccc(-n2nnc(C)c2Cn2ncc(N3C[C@@H](C)O[C@@H](C)C3)cc2=O)cn1 [Example 1, 5-(cis-2,6-dimethylmorpholin-4-yl)-2-((5-methyl-3-(6-methylpyridin-3-yl)triazol-4-yl)methyl)pyridazin-3-one] | 190 | 2.9 | 34.4 | – | – | –
4 | Cc1ccc(-c2nnn(C)c2Cn2ncc(N3C[C@@H](C)O[C@@H](C)C3)cc2=O)cn1 [Example 2, 5-(cis-2,6-dimethylmorpholin-4-yl)-2-((3-methyl-5-(6-methylpyridin-3-yl)triazol-4-yl)methyl)pyridazin-3-one] | 230 | – | 4.7 | – | – | –
5 | C[C@@H]1CN(c2cnn(Cc3c(-c4ccc(Cl)cc4F)nnn3C)c(=O)c2)C[C@H](C)O1 [Example 3, 2-((5-(4-chloro-2-fluoro-phenyl)-3-methyl-triazol-4-yl)methyl)-5-(cis-2,6-dimethylmorpholin-4-yl)pyridazin-3-one] | 124 | 2.24 | 1.2 | – | – | –
6 | Cc1nnn(-c2ccc(Cl)cc2F)c1Cn1ncc(N2CCOCC2)cc1=O [Example 4, 2-((3-(4-chloro-2-fluoro-phenyl)-5-methyl-triazol-4-yl)methyl)-5-morpholino-pyridazin-3-one] | 97 | 1.97 | 15.6 | – | – | –
7 | Cc1nnn(-c2ccc(Cl)cc2F)c1Cn1ncc(N(C)C)cc1=O [Example 5, 2-((3-(4-chloro-2-fluoro-phenyl)-5-methyl-triazol-4-yl)methyl)-5-(dimethylamino)pyridazin-3-one] | 58 | 1.58 | 18.4 | – | – | –
8 | Cc1nnn(-c2ccc(Cl)cc2F)c1Cn1ncc(N2CCN(C(=O)C3CC3)CC2)cc1=O [Example 6, 2-((3-(4-chloro-2-fluoro-phenyl)-5-methyl-triazol-4-yl)methyl)-5-(4-(cyclopropane-carbonyl)piperazin-1-yl)pyridazin-3-one] | 121 | 2.21 | 71.8 | – | – | –
9 | Cc1nnn(-c2ccc(Cl)cc2F)c1Cn1ncc(N2C[C@@H](C)O[C@@H](C)C2)cc1=O [Example 7, 2-((3-(4-chloro-2-fluoro-phenyl)-5-methyl-triazol-4-yl)methyl)-5-((2S,6R)-2,6-dimethylmorpholin-4-yl)pyridazin-3-one] | 164 | 2.64 | 5.8 | – | – | –
10 | Cc1ccc(-c2nnn(C)c2Cn2ncc(N3CCCC3)cc2=O)cn1 [Example 8, 2-((3-methyl-5-(6-methyl-3-pyridyl)triazol-4-yl)methyl)-5-pyrrolidin-1-yl-pyridazin-3-one] | 130 | 2.3 | 20.9 | – | – | –
11 | Cc1ncc2n1-c1ccc(Cl)cc1C(c1ccccc1F)=NC2 [Midazolam, reference compound] | – | – | – | ~150 | ~2.5 | –
12 | COC(=O)c1cc2c(cn1)[nH]c1ccccc12 [β-CCM, reference compound] | – | – | – | – | ~0.5 | ~50
